One test concerns the target hJAK2 (Homo sapiens (Human), UniProt O60674). The test can be described thus: hJAK2 LANCE TR-FRET enzymatic assay. The format is biochemical. The conditions noted are these: read-out: JAK2 IC50.
In the next test the target is TBK1 (Homo sapiens (Human), UniProt Q9UHD2). The test can be described thus: TBK1 TR-FRET enzymatic assay.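 Also: phosphorylation of a biotinylated Ser/Thr peptide by purified full-length recombinant TBK1, read by TR-FRET after 240 min at 25 °C, IC50 is the geometric mean of at least four runs.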 On the technique in general: Time-resolved FRET reads energy transfer from a long-lived donor to a nearby acceptor.
Sequence of TBK1 (Q9UHD2 whole entry): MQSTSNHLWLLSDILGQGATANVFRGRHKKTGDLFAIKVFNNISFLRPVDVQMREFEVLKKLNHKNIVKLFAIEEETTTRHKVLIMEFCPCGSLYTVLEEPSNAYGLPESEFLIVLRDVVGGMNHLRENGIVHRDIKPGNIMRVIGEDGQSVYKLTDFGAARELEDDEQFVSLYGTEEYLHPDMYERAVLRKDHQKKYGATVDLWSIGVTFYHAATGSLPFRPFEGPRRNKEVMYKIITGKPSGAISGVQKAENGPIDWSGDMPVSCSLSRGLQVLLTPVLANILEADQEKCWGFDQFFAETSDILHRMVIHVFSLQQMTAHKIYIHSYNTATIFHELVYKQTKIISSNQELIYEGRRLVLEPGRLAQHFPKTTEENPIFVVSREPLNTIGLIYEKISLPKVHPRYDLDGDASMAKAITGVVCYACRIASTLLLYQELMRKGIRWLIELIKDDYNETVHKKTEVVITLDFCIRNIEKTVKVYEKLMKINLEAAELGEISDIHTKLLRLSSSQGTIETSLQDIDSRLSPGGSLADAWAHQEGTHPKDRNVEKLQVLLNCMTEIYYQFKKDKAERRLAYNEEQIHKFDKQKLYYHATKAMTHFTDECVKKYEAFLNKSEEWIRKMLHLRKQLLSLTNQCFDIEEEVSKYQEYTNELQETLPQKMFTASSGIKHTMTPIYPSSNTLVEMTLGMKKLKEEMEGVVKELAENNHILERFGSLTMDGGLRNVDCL
The next test addresses IKKε (Homo sapiens (Human), UniProt Q14164). The test can be described thus: IKKε TR-FRET enzymatic assay. Conditions: read-out: IKKe IC50. The format is biochemical.

Sequence of IKKε (Q14164 whole entry): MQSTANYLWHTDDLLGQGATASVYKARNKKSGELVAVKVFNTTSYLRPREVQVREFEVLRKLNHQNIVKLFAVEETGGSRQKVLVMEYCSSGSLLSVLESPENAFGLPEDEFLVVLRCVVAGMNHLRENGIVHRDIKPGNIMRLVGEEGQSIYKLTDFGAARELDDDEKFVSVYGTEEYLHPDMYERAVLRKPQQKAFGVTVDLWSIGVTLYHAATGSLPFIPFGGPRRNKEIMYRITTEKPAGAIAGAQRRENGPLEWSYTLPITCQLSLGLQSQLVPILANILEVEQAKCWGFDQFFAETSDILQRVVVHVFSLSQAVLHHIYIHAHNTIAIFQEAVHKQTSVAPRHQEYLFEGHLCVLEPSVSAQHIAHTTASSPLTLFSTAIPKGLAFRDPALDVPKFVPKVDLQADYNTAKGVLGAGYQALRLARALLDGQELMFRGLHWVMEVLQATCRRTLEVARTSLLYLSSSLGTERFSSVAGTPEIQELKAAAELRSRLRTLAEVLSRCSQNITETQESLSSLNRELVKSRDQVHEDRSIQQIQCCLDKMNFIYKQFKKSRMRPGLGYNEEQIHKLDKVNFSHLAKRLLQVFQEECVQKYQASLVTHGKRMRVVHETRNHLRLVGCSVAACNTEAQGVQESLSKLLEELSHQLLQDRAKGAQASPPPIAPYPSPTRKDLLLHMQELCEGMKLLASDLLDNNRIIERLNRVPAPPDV
Sequence of hJAK2 (O60674 whole entry): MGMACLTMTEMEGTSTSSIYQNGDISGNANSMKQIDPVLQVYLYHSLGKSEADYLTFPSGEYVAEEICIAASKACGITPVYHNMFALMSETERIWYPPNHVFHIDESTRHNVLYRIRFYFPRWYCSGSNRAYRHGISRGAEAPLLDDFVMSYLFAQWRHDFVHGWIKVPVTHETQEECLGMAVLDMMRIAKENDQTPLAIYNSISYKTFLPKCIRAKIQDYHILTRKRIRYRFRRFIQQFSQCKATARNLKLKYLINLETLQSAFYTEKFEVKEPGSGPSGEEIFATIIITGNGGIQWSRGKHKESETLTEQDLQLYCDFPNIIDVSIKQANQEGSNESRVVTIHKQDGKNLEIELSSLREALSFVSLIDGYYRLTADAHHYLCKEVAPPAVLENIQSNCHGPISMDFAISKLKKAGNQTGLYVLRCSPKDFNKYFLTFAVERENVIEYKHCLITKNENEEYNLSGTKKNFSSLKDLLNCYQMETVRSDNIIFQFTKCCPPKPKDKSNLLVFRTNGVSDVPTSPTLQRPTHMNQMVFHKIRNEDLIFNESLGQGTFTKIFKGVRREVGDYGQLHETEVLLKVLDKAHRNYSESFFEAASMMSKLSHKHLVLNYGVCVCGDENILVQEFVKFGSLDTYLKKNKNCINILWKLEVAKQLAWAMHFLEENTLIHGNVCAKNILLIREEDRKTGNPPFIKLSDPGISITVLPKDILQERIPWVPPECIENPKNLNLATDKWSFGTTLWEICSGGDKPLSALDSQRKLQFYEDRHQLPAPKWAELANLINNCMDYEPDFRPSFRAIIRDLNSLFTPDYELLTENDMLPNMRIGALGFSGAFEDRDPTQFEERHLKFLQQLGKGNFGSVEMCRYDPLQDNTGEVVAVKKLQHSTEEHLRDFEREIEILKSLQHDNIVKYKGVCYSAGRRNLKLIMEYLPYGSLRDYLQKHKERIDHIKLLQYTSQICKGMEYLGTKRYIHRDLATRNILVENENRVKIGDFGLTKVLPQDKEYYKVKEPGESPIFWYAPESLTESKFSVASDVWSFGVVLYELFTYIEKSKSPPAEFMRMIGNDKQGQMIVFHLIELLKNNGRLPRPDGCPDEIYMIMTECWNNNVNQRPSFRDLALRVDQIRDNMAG

A word on the IC50: it is the concentration needed to halve the response being measured. Consider `C[C@H](O)C(=O)N1CC[C@H](Oc2ccc(-c3ncnc(Nc4ccc([C@H]5CCCN5C5COC5)cc4)n3)cc2C#N)[C@H](F)C1` [Example 616, 2-(((3R,4S)-3-fluoro-1-((S)-2-hydroxypropanoyl)piperidin-4-yl)oxy)-5-(4-((4-((R)-1-(oxetan-3-yl)pyrrolidin-2-yl)phenyl)amino)-1,3,5-triazin-2-yl)benzonitrile], for which the IC50 at hJAK2 was no less than 1000 nM; at TBK1, 5 nM; at IKKε, 4 nM.
As for `COC[C@@H](O)C(=O)N1CC[C@H](Oc2ccc(-c3ncnc(Nc4ccc(N5CCN(C6COC6)CC5)cc4)n3)cc2C#N)[C@H](F)C1` [Example 617, 2-(((3R,4S)-3-fluoro-1-((R)-2-hydroxy-3-methoxypropanoyl)piperidin-4-yl)oxy)-5-(4-((4-(4-(oxetan-3-yl)piperazin-1-yl)phenyl)amino)-1,3,5-triazin-2-yl)benzonitrile], the IC50 at hJAK2 worked out at 226 nM; against TBK1, 29 nM; on IKKε, 75 nM.
As for `COC[C@H](O)C(=O)N1CC[C@H](Oc2ccc(-c3ncnc(Nc4ccc(N5CCN(C6COC6)CC5)cc4)n3)cc2C#N)[C@H](F)C1` [Example 618, 2-(((3R,4S)-3-fluoro-1-((S)-2-hydroxy-3-methoxypropanoyl)piperidin-4-yl)oxy)-5-(4-((4-(4-(oxetan-3-yl)piperazin-1-yl)phenyl)amino)-1,3,5-triazin-2-yl)benzonitrile], the half-maximal inhibitory concentration (IC50) stood at 162 nM on hJAK2, 2 nM against TBK1 and 1 nM at IKKε.

The record behind these values is patent US10040781B2, “Tank-binding kinase inhibitor compounds” (Gilead Sciences, Inc., priority 2014, dated 2018).
